Experiments:
human α4β7 = biological target: T1, human α4β7 (Homo sapiens, UniProt P13612+P26010); test: α4β7-K562 Cell Adhesion Assay (α4β7 Mediated Adhesion/VCAM-1); assay type: cell-based; conditions: K562 cells expressing human α4β7 on recombinant hVCAM-1; read-out: α4β7 IC50
T1 construct: expressed in transfected cells
T1 sequence (P13612 34-1032): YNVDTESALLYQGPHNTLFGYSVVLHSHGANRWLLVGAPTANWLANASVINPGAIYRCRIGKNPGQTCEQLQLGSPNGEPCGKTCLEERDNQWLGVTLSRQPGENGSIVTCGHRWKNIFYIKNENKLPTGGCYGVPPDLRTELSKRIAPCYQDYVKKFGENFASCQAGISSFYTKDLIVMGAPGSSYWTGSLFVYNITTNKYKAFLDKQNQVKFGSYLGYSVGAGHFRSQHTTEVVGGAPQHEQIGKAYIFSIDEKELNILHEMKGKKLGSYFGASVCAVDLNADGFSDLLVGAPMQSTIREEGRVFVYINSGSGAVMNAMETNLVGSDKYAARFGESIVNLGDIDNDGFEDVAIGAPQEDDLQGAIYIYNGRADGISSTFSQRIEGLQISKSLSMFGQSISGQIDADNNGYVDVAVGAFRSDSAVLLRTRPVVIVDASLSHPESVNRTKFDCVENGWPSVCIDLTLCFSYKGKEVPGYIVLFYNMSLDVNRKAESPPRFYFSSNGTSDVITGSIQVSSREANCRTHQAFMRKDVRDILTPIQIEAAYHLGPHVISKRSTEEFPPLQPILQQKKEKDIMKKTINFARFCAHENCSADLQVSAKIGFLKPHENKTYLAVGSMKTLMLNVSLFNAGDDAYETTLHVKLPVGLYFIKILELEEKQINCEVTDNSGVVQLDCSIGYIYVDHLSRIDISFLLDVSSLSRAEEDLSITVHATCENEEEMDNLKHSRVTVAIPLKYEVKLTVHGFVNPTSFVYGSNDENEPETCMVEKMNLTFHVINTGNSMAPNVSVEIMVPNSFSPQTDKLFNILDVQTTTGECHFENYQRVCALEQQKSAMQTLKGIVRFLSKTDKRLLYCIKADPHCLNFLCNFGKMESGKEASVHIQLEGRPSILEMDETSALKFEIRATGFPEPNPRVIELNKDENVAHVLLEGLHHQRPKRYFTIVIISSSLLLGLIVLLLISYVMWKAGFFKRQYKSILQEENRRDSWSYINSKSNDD
T1 sequence (P26010 20-798): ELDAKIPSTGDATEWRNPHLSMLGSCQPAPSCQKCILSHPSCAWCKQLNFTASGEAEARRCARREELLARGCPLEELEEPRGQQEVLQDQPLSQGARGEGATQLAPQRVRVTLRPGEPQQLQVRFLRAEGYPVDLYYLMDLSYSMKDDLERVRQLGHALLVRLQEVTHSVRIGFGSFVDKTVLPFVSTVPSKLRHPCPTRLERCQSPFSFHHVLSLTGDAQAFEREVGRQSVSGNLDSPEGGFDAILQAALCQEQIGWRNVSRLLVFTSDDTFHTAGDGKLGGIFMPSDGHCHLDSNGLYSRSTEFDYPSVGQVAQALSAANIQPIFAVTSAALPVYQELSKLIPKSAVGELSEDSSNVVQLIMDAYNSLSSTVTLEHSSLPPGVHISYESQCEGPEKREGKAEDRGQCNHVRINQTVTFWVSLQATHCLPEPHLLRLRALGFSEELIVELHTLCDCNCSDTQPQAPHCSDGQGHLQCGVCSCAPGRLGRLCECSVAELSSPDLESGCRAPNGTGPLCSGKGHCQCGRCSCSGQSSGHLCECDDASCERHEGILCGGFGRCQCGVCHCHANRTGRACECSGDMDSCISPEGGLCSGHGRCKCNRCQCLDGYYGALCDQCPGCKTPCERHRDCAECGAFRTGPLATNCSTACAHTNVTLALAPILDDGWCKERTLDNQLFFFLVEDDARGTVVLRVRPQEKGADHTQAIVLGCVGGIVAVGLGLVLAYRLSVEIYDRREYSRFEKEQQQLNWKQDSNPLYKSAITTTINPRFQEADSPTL
Experimental: (§1) α4β7-K562 Cell Adhesion Assay (α4β7 Mediated Adhesion/VCAM-1) Immulon 96 well plates (Dynex) were coated with 100 μL recombinant hVCAM-1 at 4.0 μg/mL in 0.05 M NaCO3 buffer pH 9.0 overnight at 4° C. (R&D System). Plates were washed 3 times in PBS with 1% BSA and blocked for 1 h @ room temperature in this buffer. PBS was removed and compounds to be tested (50 μL) were added at 2× concentration. A stable cell line of K562 cells expressing human α4β7, (50 μL at 2×10^6/mL) labeled with 5 μM Calcein AM (Molecular Probes) for 1 h at 37° C., were added to each well and allowed to adhere for 1 h at room temperature. Plates were washed 3× in PBS+1% BSA and cells were lysed for 15 minutes in 100 μL of 1 M Tris pH 8.0 with 1% SDS. The plate was read at 485 nm excitation and 530 nm emission.

α4β1 = α4β1 (Homo sapiens, UniProt P05556+P13612); test: Ramos Cell Adhesion Assay (α4β1 Mediated Adhesion/VCAM-1); assay type: cell-based; parameters: Ramos cells, (50 μL at 2×10^6/mL) labeled with 5 μM Calcein AM; endogenous in cells; host or cells: Ramos cells; conditions: Ramos cells on recombinant hVCAM-1; read-out: α4β1 IC50
Experimental: as §1, with “Ramos” for “α4β7-K562”, “α4β1” for “(α4β7”, “[…]” for “96”, “Systems).” for “System).”, “Ramos cells,” for “A stable cell line of K562 cells expressing human α4β7,”

α4β1, sequence (P05556 21-798, one chain of several): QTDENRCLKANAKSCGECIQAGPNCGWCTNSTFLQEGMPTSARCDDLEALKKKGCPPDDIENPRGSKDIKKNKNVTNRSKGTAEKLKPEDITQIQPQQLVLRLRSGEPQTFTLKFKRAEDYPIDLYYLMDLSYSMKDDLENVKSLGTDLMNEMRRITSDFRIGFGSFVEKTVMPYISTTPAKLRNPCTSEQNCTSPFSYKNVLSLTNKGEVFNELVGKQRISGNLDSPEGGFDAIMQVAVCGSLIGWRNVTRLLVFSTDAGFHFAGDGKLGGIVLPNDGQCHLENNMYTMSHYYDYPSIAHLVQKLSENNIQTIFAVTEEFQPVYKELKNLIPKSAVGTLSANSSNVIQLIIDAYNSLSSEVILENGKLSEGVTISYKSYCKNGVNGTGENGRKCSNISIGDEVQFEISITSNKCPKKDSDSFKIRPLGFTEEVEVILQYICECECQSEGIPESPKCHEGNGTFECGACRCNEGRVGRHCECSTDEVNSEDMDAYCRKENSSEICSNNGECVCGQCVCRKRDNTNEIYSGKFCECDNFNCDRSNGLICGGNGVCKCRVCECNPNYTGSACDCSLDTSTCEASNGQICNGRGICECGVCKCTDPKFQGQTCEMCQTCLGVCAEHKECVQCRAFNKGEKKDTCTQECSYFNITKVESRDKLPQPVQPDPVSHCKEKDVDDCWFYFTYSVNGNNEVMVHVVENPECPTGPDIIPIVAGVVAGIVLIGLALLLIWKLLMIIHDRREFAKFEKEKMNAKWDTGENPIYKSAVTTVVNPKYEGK

| IC50 (human α4β7) [nM] | IC50 (α4β1) [nM] | Compound |
| --- | --- | --- |
| 387 | 234 | O=C(Nc1ccc(CC(NC(=O)C2C3CCC(CC3)N2C(=O)Cc2c(Cl)cccc2Cl)C(=O)O)cc1)c1c(Cl)cncc1Cl (stereo not shown) [Cpd 6] |
| 24 | 8 | O=C(Nc1ccc(CC(NC(=O)C2C3CCC(CC3)N2C(=O)OCc2ccccc2)C(=O)O)cc1)c1c(Cl)cncc1Cl (stereo not shown) [Cpd 42] |
| 32 | 3 | O=C(Nc1ccc(CC(NC(=O)C2C3CCC(CC3)N2C(=O)Cc2ccncc2)C(=O)O)cc1)c1c(Cl)cncc1Cl (stereo not shown) [Cpd 44] |
| > 5000 | 2560 | O=C(Nc1ccc(CC(NC(=O)C2C3CCC(CC3)N2Cc2ccc(Cl)s2)C(=O)O)cc1)c1c(Cl)cncc1Cl (stereo not shown) [Cpd 19] |
| 30 | 12 | O=C(Nc1ccc(CC(NC(=O)C2C3CCC(CC3)N2C(=O)Cc2cccs2)C(=O)O)cc1)c1c(Cl)cncc1Cl (stereo not shown) [Cpd 32] |
| 47 | 14 | CC(C)(C)CC(=O)N1C2CCC(CC2)C1C(=O)NC(Cc1ccc(NC(=O)c2c(Cl)cncc2Cl)cc1)C(=O)O (single isomer, unassigned) [Cpd 34] |
| 255 | 504 | COc1cccc(CC(=O)N2C3CCC(CC3)C2C(=O)NC(Cc2ccc(NC(=O)c3c(Cl)cncc3Cl)cc2)C(=O)O)c1 (stereo not shown) [Cpd 59] |
| 30 | 11 | O=C(Nc1ccc(CC(NC(=O)C2C3CCC(CC3)N2C(=O)CC2CCOCC2)C(=O)O)cc1)c1c(Cl)cncc1Cl (stereo not shown) [Cpd 41] |
| 27 | 9 | O=C(Nc1ccc(CC(NC(=O)C2C3CCC(CC3)N2C(=O)C#Cc2ccccc2)C(=O)O)cc1)c1c(Cl)cncc1Cl (stereo not shown) [Cpd 57] |
| 66 | 55 | O=C(Nc1ccc(CC(NC(=O)C2C3CCC(CC3)N2C(=O)Cc2csc3ccccc23)C(=O)O)cc1)c1c(Cl)cncc1Cl (stereo not shown) [Cpd 36] |
| 93 | 156 | COc1cccc(CC(=O)N2C3CCC(CC3)C2C(=O)NC(Cc2ccc(NC(=O)c3c(Cl)cncc3Cl)cc2)C(=O)O)c1 (stereo not shown) [Cpd 1] |
| 15 | 5 | CC(C)CCC(=O)N1C2CCC(CC2)C1C(=O)NC(Cc1ccc(NC(=O)c2c(Cl)cncc2Cl)cc1)C(=O)O (stereo not shown) [Cpd 38] |
| 71 | 115 | COc1ccc(CC(=O)N2C3CCC(CC3)C2C(=O)NC(Cc2ccc(NC(=O)c3c(Cl)cncc3Cl)cc2)C(=O)O)cc1 (stereo not shown) [Cpd 30] |
| 106 | 8 | COc1cc(CC(=O)N2C3CCC(CC3)C2C(=O)NC(Cc2ccc(NC(=O)c3c(Cl)cncc3Cl)cc2)C(=O)O)cc(OC)c1 (stereo not shown) [Cpd 31] |
| 66 | 55 | O=C(Nc1ccc(CC(NC(=O)C2C3CCC(CC3)N2C(=O)c2ccccc2Oc2ccccc2)C(=O)O)cc1)c1c(Cl)cncc1Cl (stereo not shown) [Cpd 63] |
| 670 | 380 | O=C(Nc1ccc(CC(NC(=O)C2C3CCC(CC3)N2C(=O)Nc2ccccc2Cl)C(=O)O)cc1)c1c(Cl)cncc1Cl (stereo not shown) [Cpd 22] |
| 943 | 77 | CC(=Cc1ccccc1)C(=O)N1C2CCC(CC2)C1C(=O)NC(Cc1ccc(NC(=O)c2c(Cl)cncc2Cl)cc1)C(=O)O (stereo not shown) [Cpd 40] |
| 316 | 164 | O=C(Nc1ccc(CC(NC(=O)C2C3CCC(CC3)N2C(=O)Cc2ccccc2C(F)(F)F)C(=O)O)cc1)c1c(Cl)cncc1Cl (stereo not shown) [Cpd 2] |
| 309 | 543 | O=C(Nc1ccc(CC(NC(=O)C2C3CCC(CC3)N2Cc2ccccc2)C(=O)O)cc1)c1c(Cl)cncc1Cl (stereo not shown) [Cpd 18] |
| 86 | 5 | O=C(Nc1ccc(CC(NC(=O)C2C3CCC(CC3)N2C(=O)CCN2CCCCC2)C(=O)O)cc1)c1c(Cl)cncc1Cl (stereo not shown) [Cpd 43] |
| 44 | 63 | O=C(Nc1ccc(CC(NC(=O)C2C3CCC(CC3)N2C(=O)Cc2ccc3ccccc3c2)C(=O)O)cc1)c1c(Cl)cncc1Cl (stereo not shown) [Cpd 7] |
| 181 | 72 | O=C(Nc1ccc(CC(NC(=O)C2C3CCC(CC3)N2C(=O)CCc2cc(C(F)(F)F)cc(C(F)(F)F)c2)C(=O)O)cc1)c1c(Cl)cncc1Cl (stereo not shown) [Cpd 55] |
| 46 | 3 | O=C(Nc1ccc(CC(NC(=O)C2C3CCC(CC3)N2C(=O)CCc2ccccc2F)C(=O)O)cc1)c1c(Cl)cncc1Cl (stereo not shown) [Cpd 52] |
